According to paper PMC3906059, “Activation and Inhibition of TMEM16A Calcium-Activated Chloride Channels” (PLoS ONE, 2014):
Like-named read-outs stand apart in the source and are kept apart here. Blank lines part the entries; values can stand above or below the compound they belong to.

Legend:
TMEM16A (ANO1) [1] = target: T1, TMEM16A (ANO1) (Mus musculus, UniProt Q8BHY3); experiment: Activation of ANO1 current by divalent cations, excised inside-out patch with fast solution exchange; assay type: cell-based
T1 construct: We subcloned the coding region of the cDNA into pEGFP-N3 vector; expressed in transfected cells; host or cells: HEK293 cells
T1 sequence (Q8BHY3 1-956 isoform Q8BHY3-2): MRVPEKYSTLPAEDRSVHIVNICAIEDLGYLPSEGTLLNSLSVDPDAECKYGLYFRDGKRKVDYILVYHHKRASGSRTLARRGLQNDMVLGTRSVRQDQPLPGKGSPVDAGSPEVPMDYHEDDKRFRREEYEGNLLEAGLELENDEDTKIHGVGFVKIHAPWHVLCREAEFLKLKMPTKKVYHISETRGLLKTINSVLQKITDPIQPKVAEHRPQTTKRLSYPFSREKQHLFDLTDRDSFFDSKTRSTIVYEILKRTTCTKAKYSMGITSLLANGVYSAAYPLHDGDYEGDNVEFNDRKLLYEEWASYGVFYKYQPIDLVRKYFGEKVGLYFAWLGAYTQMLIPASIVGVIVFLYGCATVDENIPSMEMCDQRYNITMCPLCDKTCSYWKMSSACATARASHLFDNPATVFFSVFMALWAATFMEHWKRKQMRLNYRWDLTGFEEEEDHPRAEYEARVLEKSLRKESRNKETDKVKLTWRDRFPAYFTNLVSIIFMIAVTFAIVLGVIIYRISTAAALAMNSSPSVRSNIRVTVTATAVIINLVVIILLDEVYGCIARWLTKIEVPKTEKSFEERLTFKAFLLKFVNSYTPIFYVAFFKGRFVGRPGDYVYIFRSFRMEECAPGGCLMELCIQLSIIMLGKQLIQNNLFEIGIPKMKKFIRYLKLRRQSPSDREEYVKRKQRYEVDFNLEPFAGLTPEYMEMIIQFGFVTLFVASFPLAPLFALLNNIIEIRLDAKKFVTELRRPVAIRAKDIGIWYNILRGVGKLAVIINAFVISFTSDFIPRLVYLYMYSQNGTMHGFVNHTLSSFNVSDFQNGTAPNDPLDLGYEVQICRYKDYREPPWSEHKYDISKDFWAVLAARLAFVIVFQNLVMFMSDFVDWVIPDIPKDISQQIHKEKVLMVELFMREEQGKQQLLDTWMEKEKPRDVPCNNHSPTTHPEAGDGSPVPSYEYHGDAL
Source text: (§1) The mouse TMEM16A cDNA (NCBI reference sequence: NM_001242349.1) encoding ANO1 CaCC was a generous gift from Dr. Lily Jan. We subcloned the coding region of the cDNA into pEGFP-N3 vector (Clontech Laboratories, Inc.), resulting in a construct in which an enhanced green fluorescent protein (eGFP) was attached to the C-terminus of the ANO1 protein. The sequence was confirmed by commercially-available DNA sequencing service. This eGFP-attached ANO1 cDNA construct was used for channel expression throughout the study. The cDNA was transfected into human embryonic kidney (HEK) 293 cells using lipofectamine transfection methods, [42], [43]. A fluorescent light source and a GFP filter set (Chroma Technology Co.) in the DM IRB inverted microscope (Leica Microsystems) were used to identify transfected cells expressing channel proteins. Electrophysiological experiments were performed ∼24 to 72 hours after transfection.
(§2) All chemicals were reagent grade. Regular salts (such as NaCl, NaOH, CaCl2, SrCl2, BaCl2, MgCl2 or sodium salts of various anions) were purchased from Fisher Chemicals (Fair Lawn, NJ), J. T. Baker (Phillipsburg, NJ) or Sigma Chemicals Co. (St. Louis, MO). EGTA, HEPES, and NFA were from Sigma Chemicals Co. Excised inside-out patch-clamp recordings were performed throughout the study. The extracellular (pipette) solution in all experiments contained: 140 mM NaCl, 10 mM HEPES, 0.1 mM EGTA, pH = 7.4. The regular intracellular solution contained 10 mM HEPES and 140 mM sodium salt of Cl^− or other anions. Various concentrations of divalent cations were made by adding certain total concentrations of divalent cations (Cl^− salts) into the solution containing a defined concentration of EGTA. We defined the pipette solution as the “zero-Ca^2+” solution. A solution containing a saturating [Ca^2+] was made by adding 0.12 mM total [Ca^2+] into the aforementioned zero-Ca^2+ solution, resulting in a solution containing ∼20 µM free [Ca^2+]. For making non-saturating [Ca^2+] solutions, the solutions included 1 mM EGTA. To make solutions containing Sr^2+ and Ba^2+, only 0.1 mM EGTA was used. The pH of all solutions was adjusted to 7.4.
Because of weak Mg^2+-EGTA binding, we referred the total [Mg^2+] as the free [Mg^2+]. The free [Ca^2+], [Sr^2+], and [Ba^2+] were calculated using the MaxChelator program (Ver1.2) kindly provided by Chris Patton from the Stanford University. This program was developed based on the binding constants available in the National Institute of Standard and Technology (NIST) between EGTA and these three divalent cations. Table S1, Table S2, and Table S3 list respectively the calculated free [Ca^2+], [Sr^2+], and [Ba^2+] used in this study. All added divalent cations were Cl^− salts. […] For example, in a solution containing 5 mM, 10 mM or 30 mM MgCl2, only 130 mM, 120 mM or 80 mM of NaCl, respectively, were added to the solution.
The patch-clamp recording pipettes were fabricated from borosilicate glass capillaries (World Precision Instruments) using PP830 electrode puller (Narishige International). When filled with the pipette solution, the electrode resistance was ∼1.5–3 MΩ. The experiments were carried out at room temperature (20–23°C) using the Axopatch 200B amplifier controlled by the Digidata I/O converter and the pClamp9 software (Axon Instruments/Molecular Devices).
Solution exchange was achieved using the SF-77 solution exchanger (Warner Instruments). After the excised inside-out patch mode was established, the tip of the patch pipette was positioned at the exit of the solution-delivery pipes of the SF-77 solution exchanger. The switch of solution pipes was controlled by a digital signal delivered from the Digidata 1320 digitizing board. […]

TMEM16A = details: cited from earlier work
TMEM16A (ANO1) [2] = target: T1, TMEM16A (ANO1); experiment: NFA inhibition of ANO1 current, intracellular application to inside-out patch; assay type: cell-based
Source text: as §1, §2
The inhibition of ANO1 by intracellular NFA was achieved by directly applying NFA to the intracellular side of the membrane patch using fast-solution exchange. Except where indicated, the ANO1 current was induced by saturating [Ca^2+] followed by the application of various [NFA] in the solution containing the same [Ca^2+]. The steady-state current (I) at the end of NFA application was divided by the current in the absence of NFA (I0) before and after the drug application to obtain the percentage of current remained in the presence of NFA.
For dose-response inhibition by NFA, the current (I) measured at the end of the NFA application was normalized to the current amplitude in the absence of NFA (I0). The ratio I/I0 was then plotted against [NFA], and the concentration-dependent inhibition curve was fitted to a Langmuir function (eq. 2), I/I0 = 1/(1+ [NFA]/K1/2), where K1/2 is the half-inhibition [NFA].
For comparing two treatments that might differentially affect the apparent affinity of the NFA inhibition (for example, Fig. 8 C & D), the summation of the residual error (namely, the residual sum of squares of the error) from the curve fitting of each treatment was compared to the residual error from the curve fitting of the pooled data. If the former was statistically smaller than the latter using F test, the two regression curves would be considered different. The statistically significant level (α) was set at 0.05.

TMEM16A (ANO1) [3] = target: T1, TMEM16A (ANO1); experiment: as above; assay type: cell-based; remark: listed apart in the source
CaCC of Xenopus oocytes = system: CaCC of Xenopus oocytes; set-up: method as in PMID 11279188; details: cited from earlier work

- difference of K1/2,Ca between +40 mV and −40 mV (TMEM16A (ANO1) [1]): 100 nM
- fraction of saturated current activated (TMEM16A (ANO1) [1]; 666 nM [Ca^2+], ±40 mV, in the presence or absence of 20 µM NFA): ~90%
- EC50 (TMEM16A (ANO1) [1]; +40 mV, fit to Hill equation (eq. 1), normalized to Is induced by 20 µM free Ca^2+, read-out: half-activation [Ca^2+] (K1/2,Ca)): 0.466 µM
- Hill coefficient (n) of dose-response activation curve (TMEM16A (ANO1) [1]; values covering +40 and −40 mV): ~4
- EC50 (TMEM16A (ANO1) [1]; values covering +40 and −40 mV, read-out: K1/2 of ANO1 activation): ~0.5 µM
Structure (SMILES): [Ca+2] [Ca^2+]
- maximal ANO1 current activated by saturating divalent cation compared with Is induced by saturating [Ca^2+] (TMEM16A (ANO1) [1]; Is induced by 20 µM Ca^2+, ±40 mV): activated the channel to the same maximal current level
- EC50 (TMEM16A; +80 mV, read-out: K1/2,Ca): 0.063 µM
- EC50 (TMEM16A; −60 mV, lower end of literature range, read-out: half-effective concentration of Ca^2+ (K1/2,Ca)): < 0.1 µM
- EC50 (TMEM16A; −60 mV, upper end of literature range, read-out: half-effective concentration of Ca^2+ (K1/2,Ca)): > 2 µM

- effect of NFA on sensitivity of ANO1 to Ca^2+ activation (TMEM16A (ANO1) [2]; 20 µM NFA, current induced by 666 nM Ca^2+ at ±40 mV): not reduced
- IC50 (TMEM16A (ANO1) [2]; 140 mM intracellular NaBr, pipette 140 mM Cl^−, read-out: K1/2 of NFA inhibition): 39.2 ± 1.1 µM
- IC50 (TMEM16A (ANO1) [2]; 140 mM intracellular NaCl, pipette 140 mM Cl^−, read-out: K1/2 of NFA inhibition): 17.9 ± 1.1 µM
- IC50 (TMEM16A (ANO1) [2]; 140 mM intracellular NaI, pipette 140 mM Cl^−, read-out: K1/2 of NFA inhibition): 85.5 ± 3.6 µM
- IC50 (TMEM16A (ANO1) [2]; 140 mM intracellular NaNO3, pipette 140 mM Cl^−, read-out: K1/2 of NFA inhibition): 54.8 ± 3.4 µM
- IC50 (TMEM16A (ANO1) [2]; 140 mM intracellular NaSCN, pipette 140 mM Cl^−, read-out: K1/2 of NFA inhibition): 189 ± 7.4 µM
- voltage dependence of K1/2 of NFA inhibition (TMEM16A (ANO1) [2]; between −40 mV and +40 mV): not voltage dependent
- IC50 (TMEM16A (ANO1) [2]; current activated by 404 µM [Ba^2+], Vm = −20 mV, read-out: K1/2 of NFA inhibition): 22.6 µM
- IC50 (TMEM16A (ANO1) [2]; current induced by 20 µM Ca^2+, −40, −20, +20, +40 mV, read-out: half-blocking concentration (K1/2) of NFA): 18 to 20 µM
- IC50 (TMEM16A (ANO1) [2]; symmetrical 140 mM NaCl, −40 mV, read-out: K1/2 of NFA inhibition): 18.4 µM
- IC50 (TMEM16A (ANO1) [3]; symmetrical 4 mM NaCl (136 mM Na-Glutamate added), −40 mV, read-out: K1/2 of NFA inhibition): 7.9 µM
- increase of apparent affinity of NFA inhibition in 4 mM [Cl^−] compared with 140 mM [Cl^−] (TMEM16A (ANO1) [3]; symmetrical solutions): more than 2 fold
Structure (SMILES): O=C(O)c1cccnc1Nc1cccc(C(F)(F)F)c1 [NFA, niflumic acid]
- sideness of the block (CaCC of Xenopus oocytes): from intracellular and extracellular sides with similar affinities
